Assay results: US20080221074A1, “Drug Screen and Treatment Method” (priority 2006, published 2008)

Legend:
[1] = test system: osteoblasts and osteocytes; experiment: osteoblast and osteocyte apoptosis in vertebral bone of ovariectomized mice (TUNEL); format: in vivo, Swiss Webster mice
Excerpt: The degree of apoptosis of osteoblasts and osteocytes in murine vertebral bone as a function of estrogen deficiency was examined. Swiss Webster mice (four months old) were ovariectomized. Twenty-eight days later, the animals were sacrificed, vertebrae were isolated, fixed and embedded, and then undecalcified in methacrylate.

EAE = experiment: PLP-induced EAE, treatment from clinical onset; format: in vivo, female SJL mice; details: 0.1 mg q.d. po from clinical onset
Method: The protocol for conducting the EAE animal model was described in (D. Auci et. al., Ann. NY. Acad. Sci. USA, 1051:730-42, 2005). Female SJL mice (6-8 week old, average body weight of 25 g) obtained from Charles-River were kept under standard laboratory conditions (non specific pathogen germ free) with ad libitum food and water and were allowed to adapt one week to their environment before commencing the study. […] EAA was induced with 200 μL of a 1:1 emulsion of 75 μg proteolipid protein (PLP) and 6 mg/mL Mycobacterium tuberculosis H37RA in complete Freund's adjuvant (CFA). The 200 μL injection was divided among four sites that drained into the auxiliary and inguinal lymphnodes. Pertussis toxin was used as a co-adjuvant and was administered i.p. at 200 ng/mouse on day zero and day two post immunization. Groups were treated with 0.1 mg of compound in 100 μL vehicle, or with vehicle alone, q.d. po (oral gavage) starting at clinical onset of disease and continuing through to day 30 post immunization. […] Clinical grading was carried out by an observer unaware of the treatment: 0=no illness, 1=flaccid tail, 2=moderate paraparesis, 3=severe paraparesis, 4=moribund state, 5=death.

[2] = degree of sulfation and glucuronidation (other protocols); format: in vitro ADME; details: compared to diols
Excerpt: Despite that, the compound androst-5-ene-3β,7β,16α,17β-tetrol was active as described above when administered orally to mice in a diabetes treatment model. […] This activity may have arisen at least partly from the low metabolism of tetrol compounds in vivo.

[3] = test system: human MG-63 osteosarcoma cell line; experiment: reversal of dexamethasone effects in MG-63 osteoblasts; format: cell-based; details: 30 nM dexamethasone; compound concentration stated with each value (17α-ethynyl triol: 1 nM)
[4] = test system: LPS-induced acute lung inflammation; experiment: LPS-induced lung injury; format: in vivo, C57/BL6 mice; details: 40 mg/Kg orally; 48 h after LPS
estrogen receptor-α = estrogen receptor-α (Homo sapiens, UniProt P03372); experiment: interaction with sex hormone receptor; format: binding
Sequence of estrogen receptor-α (P03372 whole entry): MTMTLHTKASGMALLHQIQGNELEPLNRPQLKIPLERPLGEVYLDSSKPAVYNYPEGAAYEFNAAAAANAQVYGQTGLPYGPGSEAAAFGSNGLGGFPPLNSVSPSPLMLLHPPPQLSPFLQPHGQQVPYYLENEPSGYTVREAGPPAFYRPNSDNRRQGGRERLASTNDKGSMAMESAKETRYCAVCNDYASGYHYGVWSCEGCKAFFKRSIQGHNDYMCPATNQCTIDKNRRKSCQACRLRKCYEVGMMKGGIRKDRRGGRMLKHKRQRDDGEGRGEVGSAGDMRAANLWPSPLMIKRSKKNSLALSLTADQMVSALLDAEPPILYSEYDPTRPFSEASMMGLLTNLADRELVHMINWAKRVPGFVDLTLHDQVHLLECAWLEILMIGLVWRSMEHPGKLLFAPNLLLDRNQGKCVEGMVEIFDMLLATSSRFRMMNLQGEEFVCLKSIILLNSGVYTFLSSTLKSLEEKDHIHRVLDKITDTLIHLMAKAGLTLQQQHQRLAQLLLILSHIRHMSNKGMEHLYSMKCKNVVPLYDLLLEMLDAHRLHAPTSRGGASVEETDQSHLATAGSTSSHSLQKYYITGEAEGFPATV

[5] = test system: insulin sensitivity in db/db diabetic mice; experiment: hyperinsulinemic-euglycemic clamp; format: in vivo
Method: Glucose lowering in 8 week old db/db diabetic mice. The hyperinsulinemic-euglycemic clamp protocol was conducted to measure insulin sensitivity in vivo. In this procedure, insulin was administered to raise the insulin concentration while glucose was infused to maintain euglycemia or a fixed, normal blood glucose level (about 180 mg/dL). […] The objective of this protocol was to investigate characterize the capacity of 17α-ethynylandrost-5-ene-3β,7β,17β-triol and androst-5-ene-3β,7β,16α,17β-tetrol to ameliorate systemic insulin resistance and improve whole body glucose disposal in the hyperinsulinemic-euglycemic clamp model. The degree of skeletal muscle and hepatic insulin sensitivity and tissue specific glucose uptake were also assessed. The animals were dosed daily by oral gavage for 14 days. On Day 10 of treatment catheters were implanted in the carotid artery and jugular vein. On the day of the clamp (day 14) the compound was administered at 7:30 am.
Body weight and glucose concentration were assessed on day 0, 7 and day 14 of treatment. On day 14 a euglycemic hyperinsulinemic clamp was performed. Food was removed at 7:30 am at 10:30 a primed continuous infusion of [3-^3H]-glucose (0.05 μCi/min). A baseline blood sample was taken at 12:50 (−10 min) and at 1:00 (0 min) a euglycemic hyperinsulinemic clamp was initiated by administering 10 mU /kg/min of insulin. Glucose was infused at a variable rate to clamp the glucose concentration at ˜180 mg/dl. A bolus of [^14C]-2deoxyglucose was given at the end of the study to assess tissue specific glucose uptake. Plasma ^14C 2-deoxyglucose was assessed at 122, 125, 130, 135, 145 min. […]
Analysis was conducted as follows. Plasma samples were deproteinized with Ba(OH)2 (0.3 N) and ZnSO4 (0.3 N), dried and radioactivity was assessed on scintillation counter (Packard TRICARB 2900 TR, Meriden, Conn.). […] One supernatant was directly counted to determine radioactivity from both [14C] […] A second aliquot was treated with Ba(OH)2 and ZnSO4 to remove ^14C DGP and any tracer incorporated into glycogen and then counted to determine radioactivity from free [^14C]DG(2). [^14C]DGP was calculated as the difference between the two aliquots. […] Rg, an index of tissue specific glucose uptake was calculated as previously described (E.W. Kraegen et al., Am. J. Physiol., 248:E353-E362, 1985). Whole body glucose turnover was calculated as the ratio of the ^3H glucose infusion rate (dpm/kg/min) and arterial plasma glucose specific activity (dpm/mg). Endogenous glucose production was calculated as the difference between the whole body glucose turnover and the exogenous glucose infusion rate (R. N. Bergman et al., Endocr. Rev., 6:45-86, 1985).

estrogen receptor-β = estrogen receptor-β (Homo sapiens, UniProt Q92731); experiment: interaction with sex hormone receptor; format: binding
Sequence of estrogen receptor-β (Q92731 whole entry, species assumed): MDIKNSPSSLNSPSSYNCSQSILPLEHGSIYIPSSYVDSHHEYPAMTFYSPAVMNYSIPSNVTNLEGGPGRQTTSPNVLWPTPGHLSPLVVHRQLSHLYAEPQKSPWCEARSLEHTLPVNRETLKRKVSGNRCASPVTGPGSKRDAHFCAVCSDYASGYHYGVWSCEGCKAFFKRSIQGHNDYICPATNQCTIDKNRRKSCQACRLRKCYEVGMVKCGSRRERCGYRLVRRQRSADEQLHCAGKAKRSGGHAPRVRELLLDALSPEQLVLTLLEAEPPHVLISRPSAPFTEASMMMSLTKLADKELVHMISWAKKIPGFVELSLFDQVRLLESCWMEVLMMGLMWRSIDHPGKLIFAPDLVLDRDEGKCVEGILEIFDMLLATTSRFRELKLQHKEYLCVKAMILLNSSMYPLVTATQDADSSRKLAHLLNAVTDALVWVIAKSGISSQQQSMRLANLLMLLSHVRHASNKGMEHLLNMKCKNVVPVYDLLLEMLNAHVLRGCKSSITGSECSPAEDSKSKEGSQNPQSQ

[6] = test system: bone marrow-derived mast cells (BMMC); experiment: mast cell stimulus-coupled degranulation (β-glucuronidase release); format: cell-based, Balb/C mice; details: no stimulus
Method: In another protocol, a population of mast cells was cultivated from murine bone marrow as follows. Briefly, bone marrows from Balb/C mice were flushed from the femur using PBS and a 27 g needle. The cells were cultured in a mixture of ⅔ RPMI-1640 with 19% FBS and cells that secreted IL-3. The bone marrow cells were allowed to differentiate for 18-25 days in the IL-3-containing mixture before being used for experiments. Bone marrow cells cultured in this manner have a phenotype similar to mucosal mast cells and are referred to as bone marrow-derived mast cells (BMMC).
The homogeneity of the in vitro propagated mast cells was checked by conventional flow cytometry techniques and staining for cell-type specific markers. Between days 14 and 21 of propagation, mature mast cells were harvested and prepared for the test cultures. The objective was to assess of the effect of compounds such as dehydroepiandrosterone on mast cell stimulus-coupled degranulation. Prepared mast cells were dispensed into test culture wells at a density of 1×10^7 cells/mL. In control cultures, mast cells were induced to degranulate after cross linking of IgE receptors with IgE antigen-antibody complexes. […] There was no detectable degranulation of mast cells as measured by release of β-glucuronidase from cytosolic storage granules of the cells in the absence of the stimulus. […]

C[C@]12CC[C@H]3[C@@H](CCC4=C[C@H](O)CC[C@@H]43)[C@@H]1CC[C@@H]2O [4-estrene-3α,17β-diol]
osteoblast and osteocyte apoptosis [1]: reduce apoptosis

C[C@]12CC[C@H]3[C@@H]([C@@H](O)C=C4C[C@H](O)CC[C@@]43C)[C@@H]1C[C@@H](O)[C@@H]2O [androst-5-ene-3α,7β,16α,17β-tetrol]
course of EAE compared to vehicle-treated mice (EAE): very similar to that observed in the vehicle-treated mice
degree of sulfation and degree of glucuronidation [2]: low
reversal of the decrease in osteoprotegerin synthesis [3]: normal osteoprotegerin levels at 10 nM

C[C@]12CC[C@H]3[C@@H]([C@@H](O)C=C4C[C@@H](O)CC[C@@]43C)[C@@H]1C[C@@H](O)[C@@H]2O [androst-5-ene-3β,7β,16α,17β-tetrol]
course of EAE compared to vehicle-treated mice (EAE): significantly improved course of EAE
IL-6 level in BAL vs vehicle [4]: reduced levels
MPO level vs vehicle [4]: reduced levels
TNFα level in BAL vs vehicle [4]: reduced levels
interaction with estrogen receptor-α (estrogen receptor-α): do not interact
glucose uptake in the gastrocnemius muscle ([5]; ^14C-2-deoxyglucose, p<0.05): more effective
glucose infusion rate compared to vehicle control ([5]; oral gavage 14 days, insulin 10 mU/kg/min): increased the glucose infusion rate
degree of sulfation and degree of glucuronidation [2]: low
interaction with estrogen receptor-β (estrogen receptor-β): do not interact
reversal of the decrease in osteoprotegerin synthesis [3]: normal osteoprotegerin levels at 0.1 μM

C[C@]12CC[C@H](O)CC1=CC[C@@H]1[C@@H]2CC[C@]2(C)C(=O)CC[C@@H]12 [dehydroepiandrosterone]
degranulation with compound alone [6]: no measurable degranulation
